Experiment: xn = mol fraction of the nth substance listed

C[N+](=O)[O-] + CC(C)CO
298.15 K, 101 kPa
Conditions | viscosity [mPa·s]
x1 = 0.1592 | 2.304
x1 = 0.2992 | 1.779
x1 = 0.4225 | 1.382
x1 = 0.5327 | 1.108
x1 = 0.6306 | 0.9667
x1 = 0.7193 | 0.822
x1 = 0.7993 | 0.7537
x1 = 0.8724 | 0.7066
x1 = 0.9387 | 0.6682

ClC1CCCCC1 + CC(C)CO
viscosity [mPa·s], 101.33 kPa
Conditions | x1 = 0.1018 | x1 = 0.2015 | x1 = 0.3066 | x1 = 0.4073 | x1 = 0.5034 | x1 = 0.5996 | x1 = 0.7053 | x1 = 0.8003 | x1 = 0.8949
298.15 K | 2.771 | 2.342 | 2.035 | 1.835 | 1.687 | 1.597 | 1.525 | 1.5 | 1.5
313.15 K | 1.784 | 1.555 | 1.393 | 1.284 | 1.223 | 1.181 | 1.146 | 1.132 | 1.144

Brc1ccc(Br)cc1 + CC(C)O
viscosity [mPa·s], 101 kPa
Conditions | 298.15 K | 303.15 K | 308.15 K | 313.15 K | 318.15 K
x1 = 0.02851 | 1.945 | 1.682 | 1.476 | 1.307 | 1.16
x1 = 0.04384 | – | 1.663 | 1.47 | 1.291 | 1.142

C[N+](=O)[O-] + CC(C)O
viscosity [mPa·s]
Conditions | 293.15 K | 298.15 K | 303.15 K | 313.15 K
101 kPa, x1 = 0.1361 | – | 1.599 | – | –
101 kPa, x1 = 0.2622 | – | 1.267 | – | –
101 kPa, x1 = 0.3785 | – | 1.025 | – | –
101 kPa, x1 = 0.4866 | – | 0.8807 | – | –
101 kPa, x1 = 0.5871 | – | 0.7784 | – | –
101 kPa, x1 = 0.6805 | – | 0.7133 | – | –
101 kPa, x1 = 0.7685 | – | 0.6771 | – | –
101 kPa, x1 = 0.8503 | – | 0.6562 | – | –
101 kPa, x1 = 0.9277 | – | 0.6386 | – | –
101.33 kPa, x2 = 0.0502 | 0.629 | – | 0.561 | 0.504
101.33 kPa, x2 = 0.1001 | 0.624 | – | 0.552 | 0.494
101.33 kPa, x2 = 0.1501 | 0.623 | – | 0.55 | 0.49
101.33 kPa, x2 = 0.2003 | 0.633 | – | 0.554 | 0.491
101.33 kPa, x2 = 0.25 | 0.649 | – | 0.564 | 0.496
101.33 kPa, x2 = 0.3 | 0.672 | – | 0.579 | 0.507
101.33 kPa, x2 = 0.35 | 0.701 | – | 0.597 | 0.518
101.33 kPa, x2 = 0.4001 | 0.731 | – | 0.616 | 0.535
101.33 kPa, x2 = 0.4501 | 0.772 | – | 0.647 | 0.552
101.33 kPa, x2 = 0.5 | 0.817 | – | 0.679 | 0.574
101.33 kPa, x2 = 0.55 | 0.868 | – | 0.716 | 0.601
101.33 kPa, x2 = 0.6 | 0.927 | – | 0.758 | 0.639
101.33 kPa, x2 = 0.65 | 1 | – | 0.811 | 0.673
101.33 kPa, x2 = 0.7 | 1.082 | – | 0.867 | 0.71
101.33 kPa, x2 = 0.75 | 1.182 | – | 0.937 | 0.764
101.33 kPa, x2 = 0.8 | 1.326 | – | 1.044 | 0.837
101.33 kPa, x2 = 0.85 | 1.485 | – | 1.154 | 0.917
101.33 kPa, x2 = 0.9 | 1.698 | – | 1.302 | 1.023
101.33 kPa, x2 = 0.95 | 1.988 | – | 1.503 | 1.159

N#C[S-].NC(N)=[NH2+] + CC(N)=O
viscosity [mPa·s], 100 kPa
Conditions | 293.15 K | 298.13 K | 303.15 K | 308.15 K | 313.15 K | 318.15 K | 323.15 K
x1 = 0.2 | – | – | 16.53 | 13.36 | 10.98 | 9.17 | 7.72
x1 = 0.25 | 25.56 | 21.49 | 17.47 | 14.41 | 12.05 | 10.31 | 8.95
x1 = 0.3333 | 25.06 | 21.05 | 17.16 | 14.05 | 11.66 | 9.89 | 8.48

CCCCOC(=O)C(C)O (stereo not given) + CC(O)CO
101 kPa
Conditions | viscosity [mPa·s]
293.15 K, x1 = 0.3 | 17.35
293.15 K, x1 = 0.6996 | 6.325
303.15 K, x1 = 0.0999 | 21.45
308.15 K, x1 = 0.3999 | 6.935
323.15 K, x1 = 0.2 | 6.665
323.15 K, x1 = 0.4998 | 3.435

CCCCC(CC)COP(=O)(O)OCC(CC)CCCC (stereo not given) + CCC(=O)O
303.15 K, 101 kPa
Conditions | viscosity [mPa·s]
x1 = 0.0668 | 1.394
x1 = 0.1278 | 1.986
x1 = 0.2286 | 3.022
x1 = 0.3182 | 4.286
x1 = 0.4677 | 6.968
x1 = 0.5096 | 7.792
x1 = 0.5879 | 9.486
x1 = 0.6584 | 11.01
x1 = 0.7068 | 12.08
x1 = 0.7594 | 13.3
x1 = 0.814 | 14.5
x1 = 0.8783 | 16.08
x1 = 0.9378 | 17.59

Cc1cccc(O)c1 + CCC(=O)O
viscosity [mPa·s], 101 kPa
Conditions | x2 = 0.1345 | x2 = 0.2591 | x2 = 0.3747 | x2 = 0.4825 | x2 = 0.5831 | x2 = 0.6772 | x2 = 0.7654 | x2 = 0.8483 | x2 = 0.9264
298.15 K | 9.375 | 7.067 | 5.436 | 4.234 | 3.319 | 2.606 | 2.045 | 1.606 | 1.269
308.15 K | 5.793 | 4.756 | 3.908 | 3.221 | 2.608 | 2.105 | 1.658 | 1.316 | 1.088
318.15 K | 4.646 | 3.935 | 3.285 | 2.719 | 2.255 | 1.884 | 1.566 | 1.277 | 0.9609

C[N+](=O)[O-] + CCC(C)=O
298.15 K, 101 kPa
Conditions | viscosity [mPa·s]
x1 = 0.1563 | 0.4237
x1 = 0.2954 | 0.4466
x1 = 0.418 | 0.4694
x1 = 0.5281 | 0.4923
x1 = 0.6264 | 0.515
x1 = 0.7156 | 0.5377
x1 = 0.7963 | 0.5604
x1 = 0.8703 | 0.5834
x1 = 0.9376 | 0.6067

C[N+](=O)[O-] + CCC(C)O
viscosity [mPa·s], 101.33 kPa
Conditions | 293.15 K | 303.15 K | 313.15 K
x2 = 0.05 | 0.631 | 0.562 | 0.508
x2 = 0.1 | 0.639 | 0.564 | 0.504
x2 = 0.15 | 0.65 | 0.571 | 0.506
x2 = 0.2002 | 0.676 | 0.584 | 0.515
x2 = 0.25 | 0.707 | 0.605 | 0.528
x2 = 0.3 | 0.751 | 0.633 | 0.546
x2 = 0.35 | 0.805 | 0.666 | 0.574
x2 = 0.4 | 0.864 | 0.705 | 0.595
x2 = 0.45 | 0.931 | 0.751 | 0.625
x2 = 0.5 | 0.995 | 0.798 | 0.659
x2 = 0.5502 | 1.081 | 0.854 | 0.7
x2 = 0.6 | 1.169 | 0.916 | 0.743
x2 = 0.6499 | 1.275 | 0.991 | 0.796
x2 = 0.7 | 1.4 | 1.079 | 0.857
x2 = 0.75 | 1.547 | 1.187 | 0.933
x2 = 0.8 | 1.742 | 1.316 | 1.03
x2 = 0.85 | 1.995 | 1.5 | 1.14
x2 = 0.9001 | 2.341 | 1.703 | 1.283
x2 = 0.95 | 2.845 | 2.02 | 1.477

CCCCC(CC)COP(=O)(O)OCC(CC)CCCC (stereo not given) + CCCC(=O)O
303.15 K, 101 kPa
Conditions | viscosity [mPa·s]
x1 = 0.0532 | 1.784
x1 = 0.1098 | 2.592
x1 = 0.1892 | 3.578
x1 = 0.2612 | 4.602
x1 = 0.3278 | 5.698
x1 = 0.4066 | 7.172
x1 = 0.5002 | 8.886
x1 = 0.6095 | 11.21
x1 = 0.6884 | 12.9
x1 = 0.7405 | 14.01
x1 = 0.8096 | 15.38
x1 = 0.8811 | 16.81
x1 = 0.9342 | 17.79

CCCCC(CC)COP(=O)(O)OCC(CC)CCCC (stereo not given) + CCCCCCC
viscosity [mPa·s], 101 kPa
Conditions | x1 = 0.0334 | x1 = 0.0721 | x1 = 0.1175 | x1 = 0.1661 | x1 = 0.2371 | x1 = 0.3181 | x1 = 0.4202 | x1 = 0.5541 | x1 = 0.7367
303.15 K | 0.4827 | 0.6407 | 0.866 | 1.16 | 1.699 | 2.494 | 3.805 | 6.131 | 10.6
313.15 K | 0.4218 | 0.5411 | 0.7073 | 0.92 | 1.301 | 1.851 | 2.738 | 4.282 | 7.192
323.15 K | 0.3705 | 0.4589 | 0.5793 | 0.7299 | 0.9935 | 1.364 | 1.95 | 2.944 | 4.774

CCCCC(CC)COP(=O)(O)OCC(CC)CCCC (stereo not given) + CCCCCCCCO
viscosity [mPa·s], 101 kPa
Conditions | 303.15 K | 313.15 K | 323.15 K
x1 = 0.0433 | 6.599 | 4.84 | 3.531
x1 = 0.0469 | 6.819 | – | –
x1 = 0.073 | 6.889 | – | –
x1 = 0.0919 | 7.065 | 5.143 | 3.719
x1 = 0.1008 | 7.185 | – | –
x1 = 0.1474 | 7.624 | 5.504 | 3.942
x1 = 0.1532 | 7.958 | – | –
x1 = 0.2125 | 8.316 | 5.948 | 4.214
x1 = 0.276 | 9.907 | – | –
x1 = 0.288 | 9.17 | 6.493 | 4.545
x1 = 0.3227 | 10.59 | – | –
x1 = 0.377 | 10.25 | 7.177 | 4.957
x1 = 0.4481 | 12.38 | – | –
x1 = 0.4848 | 11.66 | 8.068 | 5.489
x1 = 0.5519 | 13.89 | – | –
x1 = 0.6176 | 13.58 | 9.263 | 6.195
x1 = 0.6183 | 14.78 | – | –
x1 = 0.7209 | 16.04 | – | –
x1 = 0.7843 | 16.27 | 10.92 | 7.162
x1 = 0.8137 | 17.09 | – | –
x1 = 0.922 | 18.4 | – | –

CCCCCCn1cc[n+](C)c1.F[P-](F)(F)(F)(F)F + CCCCCCn1cc[n+](C)c1.[Cl-]
viscosity [mPa·s], 101 kPa
Conditions | 303.15 K | 308.15 K | 313.15 K | 318.15 K | 323.15 K
x2 = 0.2 | 962.7 | 679 | 486.2 | 357.7 | –
x2 = 0.4 | – | – | 854.7 | 598.9 | 433.5
x2 = 0.6 | – | – | – | – | 705.5

— the CheMixHub viscosity set
